Laboratory results from paper PMC4636139, “Amphipols Outperform Dodecylmaltoside Micelles in Stabilizing Membrane Protein Structure in the Gas Phase” (Analytical Chemistry, 2014).

Assays:
[1] = molecular target: T1, Mhp1 (Microbacterium maritypicum, UniProt D6R8X8); experiment: tryptophan fluorescence quenching titration; format: binding
T1 construct: gene hyuP; His-tagged (Ni-NTA, HisProbe blot), expressed in E. coli inner membranes, solubilized in DDM or trapped in A8-35
T1 sequence (D6R8X8 1-489): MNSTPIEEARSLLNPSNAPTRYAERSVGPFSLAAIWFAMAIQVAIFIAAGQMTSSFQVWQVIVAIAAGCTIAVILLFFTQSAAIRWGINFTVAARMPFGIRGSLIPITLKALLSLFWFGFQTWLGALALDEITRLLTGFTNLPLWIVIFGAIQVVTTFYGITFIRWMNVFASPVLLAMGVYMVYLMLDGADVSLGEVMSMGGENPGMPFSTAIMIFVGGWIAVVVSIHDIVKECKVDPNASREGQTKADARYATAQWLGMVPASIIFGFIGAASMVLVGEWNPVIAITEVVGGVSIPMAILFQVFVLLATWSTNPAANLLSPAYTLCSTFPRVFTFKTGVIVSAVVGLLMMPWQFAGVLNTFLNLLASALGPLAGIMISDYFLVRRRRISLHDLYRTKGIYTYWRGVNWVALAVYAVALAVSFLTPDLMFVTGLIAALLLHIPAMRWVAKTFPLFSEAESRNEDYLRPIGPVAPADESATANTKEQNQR
Description: tryptophan fluorescence quenching titration on Mhp1 | The activity of Mhp1 was evaluated by monitoring binding to L-benzylhydantoin, a known ligand

[2] = molecular target: T2, GalP (Escherichia coli, UniProt P0AEP1); experiment: tryptophan fluorescence quenching titration; format: binding
T2 construct: His-tagged (Ni-NTA, HisProbe blot), expressed in E. coli inner membranes, solubilized in DDM or trapped in A8-35
T2 sequence (P0AEP1 1-464): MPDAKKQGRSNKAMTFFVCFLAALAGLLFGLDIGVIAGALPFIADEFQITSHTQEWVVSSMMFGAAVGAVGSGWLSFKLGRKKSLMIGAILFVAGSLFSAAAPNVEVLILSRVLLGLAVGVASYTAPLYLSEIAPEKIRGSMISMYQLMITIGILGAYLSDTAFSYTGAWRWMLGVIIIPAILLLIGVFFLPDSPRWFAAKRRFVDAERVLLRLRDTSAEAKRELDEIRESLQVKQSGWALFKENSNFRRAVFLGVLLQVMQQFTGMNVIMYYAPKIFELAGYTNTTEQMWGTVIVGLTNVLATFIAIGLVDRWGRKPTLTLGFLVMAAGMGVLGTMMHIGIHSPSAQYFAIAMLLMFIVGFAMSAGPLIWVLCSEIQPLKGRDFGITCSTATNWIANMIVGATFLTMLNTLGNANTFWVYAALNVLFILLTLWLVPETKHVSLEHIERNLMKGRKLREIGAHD
Description: tryptophan fluorescence quenching titration on GalP | GalP activity was assessed by monitoring binding to the small molecule inhibitor forskolin

| SMILES | Kd [1] [µM] | Kd [2] [µM] |
| --- | --- | --- |
| O=C1NC(=O)[C@H](Cc2ccccc2)N1 [L-benzylhydantoin] | 17.6 ± 1.8 |  |
| C=C[C@@]1(C)CC(=O)[C@]2(O)[C@@]3(C)[C@@H](O)CCC(C)(C)[C@@H]3[C@H](O)[C@H](OC(C)=O)[C@@]2(C)O1 [forskolin] |  | 63 ± 19 |
